Here are results for six compounds from patent US20260167622A1, “PAN-KRAS DEGRADING AGENT, AND PREPARATION METHOD THEREFOR AND USE THEREOF” (LEADINGTAC PHARMACEUTICAL (SHAOXING) CO., LTD., priority 2022, published 2026).

The target of one assay is T1, Human KRAS G12V (Homo sapiens, UniProt P01116, G12V).
T1 construct: purchased PerkinElmer
Put plainly: KRAS-G12V/GTP binding assay (HTRF kit). The following applies: 25° C., 1 h. As to the method: Test Example 2: KRAS G12V Binding Assay
In this method, the inhibitory effects of the compounds on the binding of KRAS G12V to GTP were assayed by a homogeneous time-resolved fluorescence (HTRF) technique using a KRAS-G12V/GTP binding assay kit (PerkinElmer).
The experimental procedures were as follows (refer to the kit instructions for detailed test methods): the compounds of the present disclosure were each firstly dissolved in DMSO at a concentration of 20 mM, and then diluted in an equal gradient with a buffer in the kit, so that the final concentrations of the test compounds in the reaction system were in a range of 0.02-5000 nM, and the final concentration of DMSO was 0.5%. 5 μL of each compound was incubated with 5 μL of 1× Human KRAS G12V 6His-tagged (PerkinElmer), 5 µL of 1×6His Eu Cryptate Antibody (PerkinElmer), and 5 μL of 1×GTP Red reagent (PerkinElmer) in a 384-well plate (Greiner) at 25° C. for 1 h. After the incubation was completed, the fluorescence intensity of each well was measured at the excitation wavelength of 337 nm and the emission wavelengths of 620 nm and 665 nm with an EnVision microplate reader (PerkinElmer) in the HTRF mode, and Ratio values were calculated using the formula: Ratio=(665 nm/620 nm)×10^4. The inhibition rates of the compounds at each concentration were calculated by comparing the fluorescence intensity ratio with that of the control group. Then non-linear curve fittings for logarithmic concentration-inhibition rate were performed using the GraphPad Prism 8 analysis software, and the IC50 values of the compounds were obtained (Table 3).

Assay [1] addresses T2, KRAS G12V protein in SW900 cells (Homo sapiens, UniProt P01116, G12V).
T2 construct: endogenous in cells; host or cells: SW900
The assay can be described thus: KRAS degradation assay (Western Blot) in SW900 cells. Format: cell-based. As to conditions: 24 h. The essentials: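 5×10^5 cells/well; cpd 0.03–3000 nM final, 0.25% DMSO, 24 h, 37 °C/5% CO2. RIPA lysis, 5 µg protein/lane, anti-KRAS WB, β-actin loading ref. DC50/Dmax by nonlinear fit.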
(Immunoblotting shows a protein as a band on a membrane.)

The test system of assay [2] is KRAS G12D mutant human metastatic pancreatic cancer cell AsPc-1. The assay can be described thus: 3D cell proliferation inhibition assay, AsPc-1. In kind it is cell-based. As to conditions: ASPC1, 168 h, 3D culture, 7 days, CTG. The essentials: (§1)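 Cells seeded in low-adsorption plates at 5×10^2 cells/well (MKN1 1×10^3) with compounds at final 10000–0.026 nM, 0.2% DMSO, 3D culture 7 days at 37 °C. Viability by CellTiter-Glo luminescence; inhibition normalised to DMSO and medium-only controls, IC50 from nonlinear log-concentration fit.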

The test system of assay [3] is KRAS G12V mutant human lung squamous carcinoma cell SW900. Put plainly: 3D cell proliferation inhibition assay, SW900. As to conditions: SW900, 168 h, 3D culture, 7 days, CTG. Format: cell-based.
The subject of assay [4] is KRAS G12V mutant human colorectal cancer cell SW620. The assay can be described thus: 3D cell proliferation inhibition assay, SW620. In kind it is cell-based. The following applies: SW-620, 168 h, 3D culture, 7 days, CTG. The essentials: as §1
The subject of assay [5] is KRAS WT human gastric cancer cell MKN1. The assay can be described thus: 3D cell proliferation inhibition assay, MKN1. In kind it is cell-based. As to conditions: MKN-1, 168 h, 3D culture, 7 days, CTG. The essentials:
as §1

The subject of a further assay is KRAS-G12D mutant cells. As to conditions: background, J. Med. Chem. 2022, 65, 3923-3942; cited from earlier work.

T2 sequence (P01116 1-188 isoform P01116-2 G12V): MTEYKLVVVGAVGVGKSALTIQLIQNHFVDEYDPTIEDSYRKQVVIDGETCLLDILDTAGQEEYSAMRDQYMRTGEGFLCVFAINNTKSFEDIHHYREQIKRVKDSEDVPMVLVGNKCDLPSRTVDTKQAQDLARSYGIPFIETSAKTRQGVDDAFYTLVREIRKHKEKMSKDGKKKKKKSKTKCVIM
T1 sequence (P01116 1-188 isoform P01116-2 G12V): as above

Broadly, the IC50 is the concentration that gives 50% inhibition. High values mean a need for much substance, low ones inhibition by little substance. For orientation: DC50 means the concentration at which degradation of the target reaches its halfway point. Higher therefore signals degradation only at high concentration. Broadly, the Dmax is the greatest extent of degradation seen. A higher Dmax goes with deep degradation. Consider `C#Cc1c(F)ccc2cc(O)cc(-c3ncc4c(N5CCC[C@@](C)(O)C5)nc(OCC56CC(CN7CCN(CC8CCC9(CC8)CCN(C(=O)c8ccc(C)c(N%10CCC(=O)NC%10=O)c8)CC9)CC7)(C5)C6)nc4c3F)c12` [Example 14, (R)-1-(5-(9-((4-((3-(((7-(8-ethynyl-7-fluoro-3-hydroxynaphthalen-1-yl)-8-fluoro-4-(3-hydroxy-3-methylpiperidin-1-yl)pyrido[4,3-d]pyrimidin-2-yl)oxy)methyl)bicyclo[1.1.1]pent-1-yl)methyl)piperazin-1-yl)methyl)-3-azaspiro[5.5]undecane-3-carbonyl)-2-methylphenyl)dihydropyrimidine-2,4(1H,3H)-dione], for which the IC50 at Human KRAS G12V is not above 500 nM. In assay [1], this compound showed a DC50 not above 50 nM and a Dmax of 50 to 80%.

Regarding `C#Cc1c(F)ccc2cc(O)cc(-c3ncc4c(N5CCC[C@@](C)(O)C5)nc(OCC5(CN6CCC7(CC6)CCN(C(=O)c6ccc(Cl)c(N8CCC(=O)NC8=O)c6)CC7)CC5)nc4c3F)c12` [Example 16, (R)-1-(2-chloro-5-(9-((1-(((7-(8-ethynyl-7-fluoro-3-hydroxynaphthalen-1-yl)-8-fluoro-4-(3-hydroxy-3-methylpiperidin-1-yl)pyrido[4,3-d]pyrimidin-2-yl)oxy)methyl)cyclopropyl)methyl)-3,9-diazaspiro[5.5]undecane-3-carbonyl)phenyl)dihydropyrimidine-2,4(1H,3H)-dione], the half-maximal inhibitory concentration (IC50) on Human KRAS G12V was not above 500 nM.

Consider `C#Cc1cccc2cc(O)cc(-c3ncc4c(N5CCC[C@@](C)(O)C5)nc(OCC5(CN6CCN(CC7CCC8(CC7)CCN(C(=O)c7ccc(OC)c(N9CCC(=O)NC9=O)c7)CC8)CC6)CC5)nc4c3F)c12` [Example 29, (R)-1-(5-(9-((4-((1-(((7-(8-ethynyl-3-hydroxynaphthalen-1-yl)-8-fluoro-4-(3-hydroxy-3-methylpiperidin-1-yl)pyrido[4,3-d]pyrimidin-2-yl)oxy)methyl)cyclopropyl)methyl)piperazin-1-yl)methyl)-3-azaspiro[5.5]undecane-3-carbonyl)-2-methoxyphenyl)dihydropyrimidine-2,4(1H,3H)-dione], for which the IC50 on Human KRAS G12V was not above 500 nM; in assay [2] it was not above 50 nM; in assay [3], not above 50 nM; in assay [4], 4.46 nM; in assay [5], not above 50 nM. In addition, the DC50 in assay [1] is not above 50 nM. The compound further yielded a Dmax in assay [1] of 80 to 100%.

`C#Cc1c(F)ccc2cc(O)cc(-c3ncc4c(N(C)C5CC5)nc(OCC5(CN6CCN(CC7CCC8(CC7)CCN(C(=O)c7ccc(OC)c(N9CCC(=O)NC9=O)c7)CC8)CC6)CC5)nc4c3F)c12` [Example 30, 1-(5-(9-((4-((1-(((4-(cyclopropyl(methyl)amino)-7-(8-ethynyl-7-fluoro-3-hydroxynaphthalen-1-yl)-8-fluoropyrido[4,3-d]pyrimidin-2-yl)oxy)methyl)cyclopropyl)methyl)piperazin-1-yl)methyl)-3-azaspiroundecane-3-carbonyl)-2-methoxyphenyl)dihydropyrimidine-2,4(1H,3H)-dione]: on Human KRAS G12V, the IC50 is 500 to 1000 nM. In assay [1], this compound gave a half-maximal degradation concentration (DC50) not above 50 nM and a Dmax of 50 to 80%.

The compound `Cc1ccc(C(=O)N2CCC3(CCC(CN4CCN(CC5(COc6nc(N7CCC[C@@](C)(O)C7)c7cnc(-c8cc(O)cc(Cl)c8C8CC8)c(F)c7n6)CC5)CC4)CC3)CC2)cc1N1CCC(=O)NC1=O` [Example 40, (R)-1-(5-(9-((4-((1-(((7-(3-chloro-2-cyclopropyl-5-hydroxyphenyl)-8-fluoro-4-(3-hydroxy-3-methylpiperidin-1-yl)pyrido[4,3-d]pyrimidin-2-yl)oxy)methyl)cyclopropyl)methyl)piperazin-1-yl)methyl)-3-azaspiro[5.5]undecane-3-carbonyl)-2-methylphenyl)dihydropyrimidine-2,4(1H,3H)-dione] had an IC50 at Human KRAS G12V of 500 to 1000 nM. In assay [1], this compound gave a DC50 not above 50 nM and a Dmax of 80 to 100%.

As for `C#Cc1c(F)ccc2cc(O)cc(-c3ncc4c(N5CC6CCC(C5)N6)nc(OC[C@@]56CCCN5C[C@H](F)C6)nc4c3F)c12` [MRTX1133], the “specificity for KRAS-G12D mutant cells over wild-type tumor cells” value in the assay on KRAS-G12D mutant cells is recorded as “more than 1000 times”.
